Experimental findings from ChEMBL document CHEMBL1126094, “Iodinated tomoxetine derivatives as selective ligands for serotonin and norepinephrine uptake sites” (J Med Chem, 1992) are described below.

Where a name gives a salt, the structure may show the parent alone.

Assay [1] is filed under the species Rattus norvegicus. As to the kind of experiment: Binding affinity against NE uptake site, using [3H]nisoxetine as radioligand in rat striatal membrane. The class given is functional, Striatum.
For assay [2], the species on record is Rattus norvegicus. As to the kind of experiment: Binding affinity against 5-HT uptake site, using [3H]citalopram as radioligand in rat cortical membrane. The class given is functional.
The species named for assay [3] is Rattus norvegicus. Put plainly: Binding affinity against DA uptake site, using [125I]beta-CIT as radioligand in rat striatal membrane. The format is functional, Striatum.

A word on the Ki: it is a dissociation constant, usually derived from enzyme kinetics or from competition with a known ligand. Read a high Ki as weaker binding. Turning to `CNCC[C@H](Oc1ccc(C)cc1I)c1ccccc1`, the Ki in the assay filed under Rattus norvegicus [1] amounted to 154 nM; in the assay listed under Rattus norvegicus [2], 5.73 nM; in the assay filed under Rattus norvegicus [3] it was 410 nM.
The like results for `CNCC[C@@H](Oc1cccc(I)c1)c1ccccc1` were, in that order, 1.4 nM, 14.4 nM and 486 nM.
The like results for `CNCC[C@H](Oc1ccc(I)cc1C)c1ccccc1` were, in that order, 1160 nM, 13.9 nM and 636 nM.
Regarding `CNCC[C@@H](Oc1ccc(I)cc1)c1ccccc1`, the Ki in the assay filed under Rattus norvegicus [1] came to 3.21 nM; in the assay filed under Rattus norvegicus [2] it was 1.27 nM.
The like results for `CNCC[C@@H](Oc1ccccc1I)c1ccccc1` were, in that order, 0.24 nM and 17.1 nM.
On to `CNCC[C@H](Oc1cccc(I)c1)c1ccccc1`, for which the Ki was 1.8 nM in the assay filed under Rattus norvegicus [1], 4 nM in the assay listed under Rattus norvegicus [2] and 208 nM in the assay listed under Rattus norvegicus [3].
The like results for `CNCC[C@@H](Oc1ccc(I)cc1C)c1ccccc1` were, in that order, 69 nM, 0.65 nM and 845 nM.
The like results for `CNCC[C@@H](Oc1ccc(C)cc1I)c1ccccc1` were, in that order, 3.4 nM, 5.18 nM and 11300 nM.
The like results for `CNCC[C@@H](Oc1ccc(I)c(C)c1)c1ccccc1` were, in that order, 128 nM, 0.69 nM and 220 nM.
With `CNCC[C@H](Oc1ccc(I)c(C)c1)c1ccccc1`, the Ki was 351 nM in the assay listed under Rattus norvegicus [1], 0.3 nM in the assay filed under Rattus norvegicus [2] and 200 nM in the assay listed under Rattus norvegicus [3].
As to `CNCC[C@H](Oc1ccccc1I)c1ccccc1`, the Ki in the assay filed under Rattus norvegicus [1] was 9.35 nM; in the assay filed under Rattus norvegicus [2] it was 13.1 nM.
As to `CNCC[C@H](Oc1ccc(I)cc1)c1ccccc1`, the values for the Ki in the assay filed under Rattus norvegicus [1] and in the assay filed under Rattus norvegicus [2] were 245 nM and 0.8 nM, respectively.
The compound `CNCC[C@@H](Oc1ccccc1C)c1ccccc1` [ATOMOXETINE HYDROCHLORIDE] came in with a Ki in the assay filed under Rattus norvegicus [2] of 25.1 nM.
